Experimental data as given in patent US20240165244A1 (Prelude Therapeutics Incorporated, priority 2022, published 2024).

Legend:
SMARCA2 = target: T1, SMARCA2 (Homo sapiens, UniProt P51531); assay: SMARCA2 HiBiT degradation assay in HeLa cells; assay type: cell-based; details: 18 hours, highest concentration 10 μM
T1 construct: SMARCA2-HiBiT knock-in Hela monoclonal cell (CS302366); host or cells: HeLa monoclonal cells with heterozygous HiBiT knock-in at the endogenous SMARCA2 locus
Protocol: (§1) SMARCA2 HiBiT and SMARCA4 HiBiT Degradation Assay
HiBiT peptide knock-in of SMARCA2 in LgBiT expressing HEK293T cells was performed by CRISPR-mediated tagging system as described Promega. The homozygous HiBiT knock-in on c-terminus SMARCA2 was confirmed by sanger sequence. SMARCA2-HiBiT knock-in Hela monoclonal cell (CS302366) and SMARCA4-HiBiT knock-in Hela monoclonal cell (CS3023226) were purchased from Promega. The heterozygous HiBiT-knock-in was confirmed by sanger sequence in both SMARCA2-HiBiT and SMARCA4-HiBiT monoclonal cells.
(§2) SMARCA2 HiBiT and SMARCA4 HiBiT Degradation Assay in HeLa Cells
Dispense 10 ul aliquot of prepared Hela-SMARCA2-HiBiT or Hela-SMARCA4-HiBiT cells (1:1 ratio of cells:Trypan Blue (#1450013, Bio-Rad)) onto cell counting slide (#145-0011, Bio-Rad) and obtain cell density and cell viability using cell counter (TC20, Bio-Rad). Remove appropriate volume of resuspended cells from culture flask to accommodate 2500 cells/well @ 20 μL/well. Transfer Hela-HiBiT cells to 50 mL conical (#430290, Corning). Spin down at 1000 rpm for 5 min using tabletop centrifuge (SPINCHRON 15, Beckman). Discard supernatant and resuspend cell pellet in modified EMEM (#30-2003, ATCC) cell culture media containing 10% FBS (F2422-500ML, Sigma), and 1× Penicillin/Streptomycin ([…]) (30-002-CI, Corning) to a cell density of 125,000 cells/mL. Dispense 20 μLof resuspended Hela-HiBit cells per well in 384-well TC treated plate (#12-565-343, Thermo Scientific) using standard cassette (#50950372, Thermo Scientific) on Multidrop Combi (#5840310, Thermo Scientific) inside laminar flow cabinet.
Compounds were dissolved in DMSO to make 10 mM stock and 3-fold series dilutions were further conducted keeping the highest concentration 10 μM. Dispense test compounds onto plates using digital liquid dispenser (D300E, Tecan). Incubate plates in humidified tissue culture incubator @37° C. for 18 hours. Add 20 μL of prepared Nano-Glo® HiBiT Lytic detection buffer (N3050, Promega) to each well of 384-well plate using small tube cassette (#24073295, Thermo Scientific) on Multidrop Combi, incubate @ RT for 30-60 min. Read plates on microplate reader (Envision 2105, PerkinElmer) using 384 well Ultra-Sensitive luminescence mode. Raw data files and compound information reports are swept into centralized data lake and deconvoluted using automated scripts designed by TetraScience, Inc. Data analysis, curve-fitting and reporting done in Dotmatics Informatics Suite using Screening Ultra module.

SMARCA4 = target: T2, SMARCA4 (Homo sapiens, UniProt P51532); assay: SMARCA4 HiBiT degradation assay in HeLa cells; assay type: cell-based; details: 18 hours, highest concentration 10 μM
T2 construct: SMARCA4-HiBiT knock-in Hela monoclonal cell (CS3023226); host or cells: HeLa monoclonal cells with heterozygous HiBiT knock-in at the endogenous SMARCA4 locus
Protocol: as §1
HiBiT peptide knock-in of SMARCA2 in LgBiT expressing HEK293T cells was performed by CRISPR-mediated tagging system as described Promega. […] SMARCA2-HiBiT knock-in Hela monoclonal cell (CS302366) and SMARCA4-HiBiT knock-in Hela monoclonal cell (CS3023226) were purchased from Promega.
as §2
Remove appropriate volume of resuspended cells from culture flask to accommodate 2500 cells/well @ 20 μL/well. […] Spin down at 1000 rpm for 5 min using tabletop centrifuge (SPINCHRON 15, Beckman).
Dispense test compounds onto plates using digital liquid dispenser (D300E, Tecan). Incubate plates in humidified tissue culture incubator @37° C. for 18 hours. […] Raw data files and compound information reports are swept into centralized data lake and deconvoluted using automated scripts designed by TetraScience, Inc. Data analysis, curve-fitting and reporting done in Dotmatics Informatics Suite using Screening Ultra module.

T2 sequence (P51532 whole entry): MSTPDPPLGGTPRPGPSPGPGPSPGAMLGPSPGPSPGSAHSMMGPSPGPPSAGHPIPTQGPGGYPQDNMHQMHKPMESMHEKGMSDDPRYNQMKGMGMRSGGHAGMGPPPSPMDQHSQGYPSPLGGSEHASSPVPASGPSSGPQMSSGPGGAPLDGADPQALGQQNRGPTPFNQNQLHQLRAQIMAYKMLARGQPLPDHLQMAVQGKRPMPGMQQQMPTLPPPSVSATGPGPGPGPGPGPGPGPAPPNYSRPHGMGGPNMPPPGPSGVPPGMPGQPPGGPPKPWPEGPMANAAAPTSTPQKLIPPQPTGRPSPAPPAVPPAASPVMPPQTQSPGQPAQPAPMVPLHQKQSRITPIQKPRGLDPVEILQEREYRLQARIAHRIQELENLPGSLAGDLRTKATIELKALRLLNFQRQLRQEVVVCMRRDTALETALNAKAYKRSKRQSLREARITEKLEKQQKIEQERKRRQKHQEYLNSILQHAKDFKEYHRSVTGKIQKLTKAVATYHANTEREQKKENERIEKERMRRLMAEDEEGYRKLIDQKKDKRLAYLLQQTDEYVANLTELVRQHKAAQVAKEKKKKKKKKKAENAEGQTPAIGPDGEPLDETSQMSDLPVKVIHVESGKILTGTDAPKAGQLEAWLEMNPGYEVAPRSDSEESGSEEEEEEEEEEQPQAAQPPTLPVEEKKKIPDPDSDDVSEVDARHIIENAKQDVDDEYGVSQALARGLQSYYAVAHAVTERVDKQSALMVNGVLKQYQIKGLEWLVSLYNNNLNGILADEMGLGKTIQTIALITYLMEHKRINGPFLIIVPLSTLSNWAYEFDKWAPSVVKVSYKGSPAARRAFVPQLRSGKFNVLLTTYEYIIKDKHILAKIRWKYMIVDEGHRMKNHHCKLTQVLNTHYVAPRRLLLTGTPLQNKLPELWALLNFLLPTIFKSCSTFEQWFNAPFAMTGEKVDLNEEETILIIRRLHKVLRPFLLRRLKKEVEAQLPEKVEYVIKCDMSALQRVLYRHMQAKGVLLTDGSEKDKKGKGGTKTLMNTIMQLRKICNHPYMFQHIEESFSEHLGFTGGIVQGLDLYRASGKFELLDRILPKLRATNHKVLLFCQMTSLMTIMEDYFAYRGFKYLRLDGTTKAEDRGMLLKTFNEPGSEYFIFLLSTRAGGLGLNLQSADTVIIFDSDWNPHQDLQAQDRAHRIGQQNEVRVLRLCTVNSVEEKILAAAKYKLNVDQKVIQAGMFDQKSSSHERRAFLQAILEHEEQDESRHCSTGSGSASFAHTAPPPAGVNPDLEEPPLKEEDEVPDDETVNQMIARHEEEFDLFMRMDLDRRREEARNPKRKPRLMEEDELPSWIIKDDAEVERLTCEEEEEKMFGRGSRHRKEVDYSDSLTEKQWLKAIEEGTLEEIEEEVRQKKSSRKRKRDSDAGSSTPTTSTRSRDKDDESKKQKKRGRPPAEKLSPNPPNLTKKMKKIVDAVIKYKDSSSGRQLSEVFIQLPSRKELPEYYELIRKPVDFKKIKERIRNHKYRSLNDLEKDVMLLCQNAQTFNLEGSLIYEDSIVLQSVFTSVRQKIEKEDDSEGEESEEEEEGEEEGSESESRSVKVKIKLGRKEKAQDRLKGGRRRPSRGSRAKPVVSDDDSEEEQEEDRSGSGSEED
T1 sequence (P51531 whole entry): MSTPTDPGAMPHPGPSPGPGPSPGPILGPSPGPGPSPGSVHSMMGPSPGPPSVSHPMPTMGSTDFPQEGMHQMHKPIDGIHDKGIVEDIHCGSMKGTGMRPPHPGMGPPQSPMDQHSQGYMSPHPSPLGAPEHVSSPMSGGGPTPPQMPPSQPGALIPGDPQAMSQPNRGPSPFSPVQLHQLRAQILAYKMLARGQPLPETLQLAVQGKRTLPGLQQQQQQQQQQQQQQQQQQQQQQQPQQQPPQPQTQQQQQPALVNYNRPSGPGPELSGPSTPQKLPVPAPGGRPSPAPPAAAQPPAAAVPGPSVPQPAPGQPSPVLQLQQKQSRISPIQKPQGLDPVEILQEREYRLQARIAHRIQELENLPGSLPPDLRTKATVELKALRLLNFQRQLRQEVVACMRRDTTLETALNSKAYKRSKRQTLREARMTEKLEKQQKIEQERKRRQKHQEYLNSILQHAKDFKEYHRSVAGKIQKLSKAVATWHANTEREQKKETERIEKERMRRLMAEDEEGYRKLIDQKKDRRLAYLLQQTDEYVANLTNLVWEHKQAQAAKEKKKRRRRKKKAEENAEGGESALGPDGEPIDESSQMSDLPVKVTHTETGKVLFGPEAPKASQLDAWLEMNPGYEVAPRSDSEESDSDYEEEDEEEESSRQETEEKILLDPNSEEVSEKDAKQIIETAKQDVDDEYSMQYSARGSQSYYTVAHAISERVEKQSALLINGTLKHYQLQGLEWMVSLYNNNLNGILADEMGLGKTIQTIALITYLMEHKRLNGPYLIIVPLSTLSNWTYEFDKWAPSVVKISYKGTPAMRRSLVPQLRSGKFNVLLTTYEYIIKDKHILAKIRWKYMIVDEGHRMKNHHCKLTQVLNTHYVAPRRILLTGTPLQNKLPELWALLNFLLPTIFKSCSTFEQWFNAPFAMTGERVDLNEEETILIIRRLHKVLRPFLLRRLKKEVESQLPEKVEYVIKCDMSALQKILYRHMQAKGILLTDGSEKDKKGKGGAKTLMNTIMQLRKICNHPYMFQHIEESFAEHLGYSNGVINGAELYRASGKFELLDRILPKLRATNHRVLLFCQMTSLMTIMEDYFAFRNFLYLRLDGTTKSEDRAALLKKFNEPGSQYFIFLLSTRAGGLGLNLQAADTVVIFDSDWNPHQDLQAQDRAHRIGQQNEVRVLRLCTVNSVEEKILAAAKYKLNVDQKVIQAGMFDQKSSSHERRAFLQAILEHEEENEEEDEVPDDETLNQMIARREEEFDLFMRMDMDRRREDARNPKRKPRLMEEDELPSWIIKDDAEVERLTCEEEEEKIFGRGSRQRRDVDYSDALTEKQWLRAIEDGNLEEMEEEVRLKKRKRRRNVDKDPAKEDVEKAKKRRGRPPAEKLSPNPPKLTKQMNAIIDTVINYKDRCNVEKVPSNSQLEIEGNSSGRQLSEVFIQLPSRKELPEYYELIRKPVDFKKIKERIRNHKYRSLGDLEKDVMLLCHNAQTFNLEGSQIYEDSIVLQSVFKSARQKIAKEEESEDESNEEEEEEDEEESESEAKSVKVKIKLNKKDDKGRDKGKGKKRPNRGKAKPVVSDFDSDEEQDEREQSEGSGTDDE

| SMILES | DC50 (SMARCA2) [nM] | Dmax (SMARCA2) [%] | DC50 (SMARCA4) [nM] | Dmax (SMARCA4) [%] |
| --- | --- | --- | --- | --- |
| Cc1nc(O[C@H]2CN3c4cc(-c5cccc(F)c5O)nnc4NC[C@@]3(C)C2)ncc1CN1CCC(c2ccc3c(c2)C(=O)N([C@H]2CCC(=O)NC2=O)C3)CC1 [Example 77, (S)-3-(6-(1-((2-(((6aR,8R)-2-(3-fluoro-2-hydroxyphenyl)-6a-methyl-5,6,6a,7,8,9-hexahydropyrrolo[1′,2′:4,5]pyrazino[2,3-c]pyridazin-8-yl)oxy)-4-methylpyrimidin-5-yl)methyl)piperidin-4-yl)-1-oxoisoindolin-2-yl)piperidine-2,6-dione] | < 100 | > 75 | > 1000 | < 50 |
| CC[C@]12CNc3nnc(-c4cccc(F)c4O)cc3N1C[C@H](Oc1cnc(CN3CCC(c4ccc5c(c4)C(=O)N([C@H]4CCC(=O)NC4=O)C5)CC3)cn1)C2 [Example 103, (S)-3-(6-(1-((5-(((6aS,8R)-6a-ethyl-2-(3-fluoro-2-hydroxyphenyl)-5,6,6a,7,8,9-hexahydropyrrolo[1′,2′:4,5]pyrazino[2,3-c]pyridazin-8-yl)oxy)pyrazin-2-yl)methyl)piperidin-4-yl)-1-oxoisoindolin-2-yl)piperidine-2,6-dione] | < 100 | > 75 | < 100 | 50 to 75 |
| Cc1c(CN2CCN(c3ccc4c(c3)C(=O)N([C@H]3CCC(=O)NC3=O)C4)CC2)cnc(O[C@H]2CN3c4cc(-c5cccc(F)c5O)nnc4NC[C@@]3(C(F)F)C2)c1C [Example 86, (S)-3-(6-(4-((6-(((6aR,8R)-6a-(difluoromethyl)-2-(3-fluoro-2-hydroxyphenyl)-5,6,6a,7,8,9-hexahydropyrrolo[1′,2′:4,5]pyrazino[2,3-c]pyridazin-8-yl)oxy)-4,5-dimethylpyridin-3-yl)methyl)piperazin-1-yl)-1-oxoisoindolin-2-yl)piperidine-2,6-dione] | < 100 | > 75 | 100 to 1000 | < 50 |
| Cc1cc(CN2CCC(c3ccc4c(c3)C(=O)N([C@H]3CCC(=O)NC3=O)C4)CC2)ncc1O[C@H]1CN2c3cc(-c4cccc(C)c4O)nnc3NC[C@]2(C(F)F)C1 [Example 94, (S)-3-(6-(1-((5-(((6aS,8R)-6a-(difluoromethyl)-2-(2-hydroxy-3-methylphenyl)-5,6,6a,7,8,9-hexahydropyrrolo [1′,2′:4,5]pyrazino[2,3-c]pyridazin-8-yl)oxy)-4-methylpyridin-2-yl)methyl)piperidin-4-yl)-1-oxoisoindolin-2-yl)piperidine-2,6-dione] | < 100 | 50 to 75 | > 1000 | < 50 |
| CC[C@@]12CNc3nnc(-c4cccc(F)c4O)cc3N1C[C@H](Sc1cc(C)c(CN3CCN(c4ccc5c(c4)C(=O)N([C@H]4CCC(=O)NC4=O)C5)CC3)cn1)C2 [Example 60, 3-(6-(4-((6-(((6aR,8R)-6a-ethyl-2-(3-fluoro-2-hydroxyphenyl)-5,6,6a,7,8,9-hexahydropyrrolo[1′,2′:4,5]pyrazino[2,3-c]pyridazin-8-yl)thio)-4-methylpyridin-3-yl)methyl)piperazin-1-yl)-1-oxoisoindolin-2-yl)piperidine-2,6-dione] | < 100 | > 75 | < 100 | 50 to 75 |
| CC[C@]12CNc3nnc(-c4cccc(F)c4O)cc3N1C[C@H](Oc1cnc(CN3CCN(c4ccc5c(c4)CN([C@H]4CCC(=O)NC4=O)C5=O)CC3)c(C(F)(F)F)c1)C2 [Example 73, (S)-3-(5-(4-((5-(((6aS,8R)-6a-ethyl-2-(3-fluoro-2-hydroxyphenyl)-5,6,6a,7,8,9-hexahydropyrrolo[1′,2′:4,5]pyrazino[2,3-c]pyridazin-8-yl)oxy)-3-(trifluoromethyl)pyridin-2-yl)methyl)piperazin-1-yl)-1-oxoisoindolin-2-yl)piperidine-2,6-dione] | < 100 | > 75 | < 100 | 50 to 75 |
| O=C1CCC(N2Cc3ccc(N4CCN(Cc5cnc(O[C@H]6CN7c8cc(-c9cccc(F)c9O)nnc8NC[C@@]7(C(F)F)C6)c(F)c5)CC4)cc3C2=O)C(=O)N1 (stereo partly drawn) [Example 84, 3-(6-(4-((6-(((6aR,8R)-6a-(difluoromethyl)-2-(3-fluoro-2-hydroxyphenyl)-5,6,6a,7,8,9-hexahydropyrrolo[1′,2′:4,5]pyrazino[2,3-c]pyridazin-8-yl)oxy)-5-fluoropyridin-3-yl)methyl)piperazin-1-yl)-1-oxoisoindolin-2-yl)piperidine-2,6-dione] | < 100 | > 75 | 100 to 1000 | < 50 |
| Cc1nc(O[C@H]2CN3c4cc(-c5cccc(F)c5O)nnc4NC[C@]3(C(F)F)C2)c(C)nc1CN1CCN(c2ccc3c(c2)C(=O)N([C@H]2CCC(=O)NC2=O)C3)CC1 [Example 48, (S)-3-(6-(4-((5-(((6aS,8R)-6a-(difluoromethyl)-2-(3-fluoro-2-hydroxyphenyl)-5,6,6a,7,8,9-hexahydropyrrolo[1′,2′:4,5]pyrazino[2,3-c]pyridazin-8-yl)oxy)-3,6-dimethylpyrazin-2-yl)methyl)piperazin-1-yl)-1-oxoisoindolin-2-yl)piperidine-2,6-dione] | < 100 | 50 to 75 | 100 to 1000 | < 50 |
| Cc1cc(O[C@@H]2C[C@@H]3CNc4nnc(-c5cc(F)cc(F)c5O)cc4N3C2)ncc1CN1CCN(c2ccc3c(c2)C(=O)N([C@H]2CCC(=O)NC2=O)C3)CC1 [Example 28, (S)-3-(6-(4-((6-(((6aR,8R)-2-(3,5-difluoro-2-hydroxyphenyl)-5,6,6a,7,8,9-hexahydropyrrolo[1′,2′:4,5]pyrazino[2,3-c]pyridazin-8-yl)oxy)-4-methylpyridin-3-yl)methyl)piperazin-1-yl)-1-oxoisoindolin-2-yl)piperidine-2,6-dione] | < 100 | > 75 | < 100 | 50 to 75 |
| C[C@]12CNc3nnc(-c4cccc(F)c4O)cc3N1C[C@H](Oc1cnc(CN3CCN(c4ccc5c(c4)C(=O)N([C@H]4CCC(=O)NC4=O)C5)CC3)cn1)C2 [Example 79, (S)-3-(6-(4-((5-(((6aS,8R)-2-(3-fluoro-2-hydroxyphenyl)-6a-methyl-5,6,6a,7,8,9-hexahydropyrrolo[1′,2′:4,5]pyrazino[2,3-c]pyridazin-8-yl)oxy)pyrazin-2-yl)methyl)piperazin-1-yl)-1-oxoisoindolin-2-yl)piperidine-2,6-dione] | < 100 | > 75 | < 100 | 50 to 75 |
| Cc1c(CN2CCC(c3ccc4c(c3)C(=O)N([C@H]3CCC(=O)NC3=O)C4)CC2)cnc(O[C@H]2CN3c4cc(-c5cccc(F)c5O)nnc4NC[C@]3(C(F)F)C2)c1F [Example 89, (S)-3-(6-(1-((6-(((6aS,8R)-6a-(difluoromethyl)-2-(3-fluoro-2-hydroxyphenyl)-5,6,6a,7,8,9-hexahydropyrrolo[1′,2′:4,5]pyrazino[2,3-c]pyridazine-8-yl)oxy)-5-fluoro-4-methylpyridin-3-yl)methyl)piperidin-4-yl)-1-oxoisoindolin-2-yl)piperidine-2,6-dione] | < 100 | > 75 | < 100 | > 75 |
